{"source": "patent US20060052357A1", "about": "“Organometallic anti-tumour agent” (priority 2001, published 2006)", "key": {"adenocarcinoma": {"system": "adenocarcinoma", "assay": "Adenocarcinoma in Balb mice, intraabdominal administration", "format": "in vivo", "procedure": "1) 10 mice of the Balb line, each of which contained an adenocarcinoma, received intraabdominal administration of Cu(acac)2M in a dose of 5 mg/kg in 0.3 ml of physiological saline solution. As control, 10 further mice of the same type with the same tumor were determined without treatment. An average tumor weight of 3.60 g was found in the control mice, while the average tumor weight in the treated mice was 0.3 g. The results for the mice treated according to the invention are indicated, with weight and size of the tumor, in table 1 below.\nThe average weight of the tumor was 3.60 g."}, "C-180 sarcoma": {"system": "C-180 sarcoma", "assay": "Antitumor activity for C-180 sarcoma, intraperitoneal", "format": "in vivo", "settings": "5 mg/kg intraperitoneal", "procedure": "4. Antitumor Activity for C-180 Sarcoma\nThe results of series of experiments in which the stated active ingredient was administered intra-peritoneally in the stated dosage in physiological saline solution are shown in table 5 below."}, "leukemia L-1210": {"system": "leukemia L-1210", "assay": "Leukemia L-1210 survival", "format": "in vivo, mice", "procedure": "(§1) The therapeutic efficacy was investigated on the leukemia tumor strains L-1210, P-388, and P-388 strains specifically obtained for drug resistance. The lifespan of the animals was set at 60 days in this case. Drug-resistant tumor were obtained by successive transplantation of the leukemia P-388 with ascites cells taken from mice which had been treated with rubomycin (strain P388/ph), vincristine (P388/vcr) and zisplatin (P388/cPt).\nInoculum: 10^6 cells in 0.2 ml of physiological saline solution. Mice: BDF1, females 19-21 g. The products were administered intraabdominally.\n(§2) After transplantation of the tumor, the substance MOC.melphalan was administered intraabdominally to the animals in a dosage of 5 mg/kg in 0.3 ml of 10% Twin-80 solution on days 1 to 7. The effect of the substance was assessed on the basis of the lifespan and the weight change of the animals (table 9). The observation period was 60 days."}, "leukemia P-388": {"system": "leukemia P-388", "assay": "Leukemia P-388 survival (original strain)", "format": "in vivo, mice", "procedure": "as §1\nInoculum: 10^6 cells in 0.2 ml of physiological saline solution. Mice: BDF1. Females 19-21 g\nas §2, with “7).” for “9). The observation period was 60 days.”\n(§3) The products were administered intraabdominally. Cu(acac)2M was dissolved in 10% Twin 80."}, "P388/ph": {"system": "P388/ph", "assay": "Drug-resistant leukemia P388/ph (rubomycin-resistant) survival", "format": "in vivo, mice", "settings": "5 mg/kg, days 1-7", "text": "as §1\n(§4) Resistance to the products mentioned appear in the 8th, 6th and 4th generation.\nas §3"}, "P388/vcr": {"system": "P388/vcr", "assay": "Drug-resistant leukemia P388/vcr (vincristine-resistant) survival", "format": "in vivo, mice", "settings": "5 mg/kg, days 1-7", "text": "as §1, §4, §3"}, "P388/cPt": {"system": "P388/cPt", "assay": "Drug-resistant leukemia P388/cPt (cisplatin-resistant) survival", "format": "in vivo, mice", "settings": "5 mg/kg, days 1-7", "text": "as §1, §4, §3"}, "[1]": {"system": "drug-resistant leukemia P-388 tumors", "settings": "rubomycin-, vincristine-, cisplatin-resistant P-388", "text": "The drug-resistant tumors were obtained by administration of ascites cells leukemia P-388 which were derived from mice treated with rubomycin, vincristine and cisplatin."}, "Toxicity investigations": {"assay": "Toxicity investigations", "format": "in vivo, five laboratory species", "settings": "5 mg/kg of body weight", "procedure": "The toxicity of the complex (C5H7O2)2—Cu—C13H18Cl2N2O2 of the invention was determined on five laboratory species in various tests. […] It was additionally possible to show in the investigations that (C5H7O2)2—Cu—C13H18Cl2N2O2 induces no resistance even on prolonged administration."}, "AKATON tumor": {"system": "AKATON tumor", "assay": "AKATON small bowel adenocarcinoma, treatment with MOC.melphalan (Example 8)", "format": "in vivo, mice", "settings": "day 21", "procedure": "(§5) After transplantation of the AKATON tumor into white crossbred mice, the animals received the substance MOC.melphalan by intraabdominal administration in a dosage of 5 mg/kg in 0.3 ml of physiological solution on days 3, 5, 7 and 9. The animals were sacrificed on day 21 of the investigation and underwent histological, morphological examination (table 14).\nas §5, with “intravenous” for “intraabdominal”, “15).” for “14).”"}, "B-16 melanoma tumor": {"system": "B-16 melanoma tumor", "assay": "B-16 melanoma tumor, MOC.melphalan and MOC.tegafur (Example 13)", "format": "in vivo, mice", "settings": "Dose 5 mg/kg (table), day 16", "procedure": "MOC.tegafur was administered in a physiological solution. The animals in the control group likewise received administration of the solutions (without products). On day 16, the mice were sacrificed by decapitation, tumor tissue was removed for histological examination, and the tumor was investigated for antitumor activity (table 23). The tumors were fixed with 10% formalin, which was followed by embedding in paraffin. The section thickness of 5 μm were stained with hematoxylin-eosinome. The microscopy was carried out with a Leica Galen microscope."}, "Hydrolysis stability": {"assay": "Hydrolysis stability", "format": "physicochemical", "settings": "for period of stability (no hydrolysis): 20° C.", "procedure": "0.6 g of (C5H7O2)2—Cu—C13H18Cl2N2O2 was dispersed in 100 ml of water or physiological saline solution with the aid of an ultrasound generator (frequency: 15 kHz, 10 minutes).\n0.6 g of (C5H7O2)2—Cu—C13H18Cl2N2O2 was dispersed in 100 ml of 100% olive oil with the aid of an ultrasound generator (frequency: 15 kHz, 10 minutes).\n0.1 g of (C5H7O2)2—Cu—C13H18Cl2N2O2 was dispersed in 100 ml of linoleic acid or linolenic acid with the aid of an ultrasound generator (frequency: 15 kHz, 10 minutes)."}, "[2]": {"assay": "Solubility and stability in air"}, "[3]": {"settings": "5 mg/kg intraabdominal days 1-7"}}}
{"smiles": "CC(=O)C=C(C)[O-].CC(=O)C=C(C)[O-].NC(Cc1ccc(N(CCCl)CCCl)cc1)C(=O)O.[Cu+2]", "note": "(stereo not drawn) [MOC.melphalan, (C5H7O2)2—Cu—C13H18Cl2N2O2]", "values": [{"measurement": "inhibition of the tumor", "setting": "adenocarcinoma; Balb mice, 5 mg/kg intraabdominal, compared with control series", "value": 91.9, "unit": "%"}, {"measurement": "average tumor weight", "setting": "adenocarcinoma; Balb mice, 5 mg/kg intraabdominal, control 3.60 g", "value": 0.3, "unit": "g"}, {"measurement": "Size of the tumor", "setting": "adenocarcinoma; individual treated mice 1-10, 5 mg/kg intraabdominal, listed as Cu(acac)2M", "value": 0, "unit": "cm"}, {"measurement": "% inhibition", "setting": "C-180 sarcoma", "value": 100, "unit": "%"}, {"measurement": "Mass of the tumor", "setting": "C-180 sarcoma; control 2.8", "value": "no tumor"}, {"measurement": "Change in weight", "setting": "leukemia L-1210; [3]", "value": -1.5, "unit": "g"}, {"measurement": "% of surviving animals", "setting": "leukemia L-1210; 5 mg/kg intraabdominal days 1-7, 60 days observation", "value": 100, "unit": "%"}, {"measurement": "Lifespan of the animals in the experiment", "setting": "leukemia L-1210; 5 mg/kg intraabdominal days 1-7, control 8.5", "value": ">60", "unit": "days"}, {"measurement": "Change in weight", "setting": "leukemia P-388; [3]", "value": -2.5, "unit": "g"}, {"measurement": "Increase in average lifespan", "setting": "leukemia P-388; [3]", "value": 56.0, "unit": "%"}, {"measurement": "Number of animals which survived to day 60", "setting": "leukemia P-388; 5 mg/kg intraabdominal days 1-7, 6 animals", "value": 0}, {"measurement": "Average lifespan", "setting": "leukemia P-388; 5 mg/kg intraabdominal days 1-7, control 10.8", "value": 16.8, "unit": "days"}, {"measurement": "ILS %", "setting": "leukemia P-388; 5 mg/kg, days 1-7", "value": 56, "unit": "%"}, {"measurement": "ILS %", "setting": "P388/ph", "value": 189, "unit": "%"}, {"measurement": "Number of surviving animals/number of animals in group", "setting": "P388/ph", "value": "2/6"}, {"measurement": "ILS %", "setting": "P388/vcr", "value": 516, "unit": "%"}, {"measurement": "Number of surviving animals/number of animals in group", "setting": "P388/vcr", "value": "5/6"}, {"measurement": "ILS %", "setting": "P388/cPt", "value": 193, "unit": "%"}, {"measurement": "sensitivity of the resistant tumors reduced", "setting": "[1]", "value": "4-5 fold"}, {"measurement": "changes in organs and tissues", "setting": "Toxicity investigations", "value": "no specific changes"}, {"measurement": "changes in the peripheral blood count", "setting": "Toxicity investigations", "value": "no serious changes"}, {"measurement": "effects on renal and hepatic function", "setting": "Toxicity investigations", "value": "no pathological effects"}, {"measurement": "Percentage inhibition", "setting": "AKATON tumor; 5 mg/kg intraabdominal days 3, 5, 7, 9", "value": 92, "unit": "%"}, {"measurement": "Average tumor mass", "setting": "AKATON tumor; 5 mg/kg intraabdominal days 3, 5, 7, 9, control 3.6", "value": 0.3}, {"measurement": "Percentage inhibition", "setting": "AKATON tumor; 5 mg/kg intravenous days 3, 5, 7, 9", "value": 80, "unit": "%"}, {"measurement": "Average tumor mass", "setting": "AKATON tumor; 5 mg/kg intravenous days 3, 5, 7, 9, control 4.4", "value": 0.9, "unit": "g"}, {"measurement": "MI (mitosis index)", "setting": "B-16 melanoma tumor; control 4.22", "value": 0.64}, {"measurement": "Percent inhibition", "setting": "B-16 melanoma tumor; intraabdominal days 3, 5, 9", "value": 77.71, "unit": "%"}, {"measurement": "Tumor weight", "setting": "B-16 melanoma tumor; intraabdominal days 3, 5, 9, control 3.22", "value": 0.74, "unit": "g"}, {"measurement": "period of stability", "setting": "Hydrolysis stability; 0.1 g in 100 ml of linoleic acid or linolenic acid, 20° C. in air", "value": 1, "unit": "year"}, {"measurement": "period of stability (no hydrolysis)", "setting": "Hydrolysis stability; 0.6 g in 100 ml of 100% olive oil", "value": "more than 2 years"}, {"measurement": "period of stability (no hydrolysis)", "setting": "Hydrolysis stability; 0.6 g in 100 ml of water or physiological saline solution", "value": 30, "unit": "days"}, {"measurement": "solubility in water", "setting": "[2]", "value": "poor solubility"}]}
